From US9040516B2, “Uracil derivative and use thereof for medical purposes” (SUMITOMO DAINIPPON PHARMA CO., LTD., priority 2011, dated 2015)

Each compound was assayed against T1, human neutrophil elastase (Homo sapiens, UniProt P08246) (assay: Inhibitory action 2 against human neutrophil elastase (Test Example 2; fluorogenic substrate MeOSuc-AAPV-AMC, buffer with 400 mM NaCl, 0.2 mg/ml BSA)). Conditions: 37° C., read-out: IC50 value (compound concentration required for 50% inhibition of human neutrophil elastase).
T1 construct: purchased Elastin Products Company
T1 sequence (P08246 30-267): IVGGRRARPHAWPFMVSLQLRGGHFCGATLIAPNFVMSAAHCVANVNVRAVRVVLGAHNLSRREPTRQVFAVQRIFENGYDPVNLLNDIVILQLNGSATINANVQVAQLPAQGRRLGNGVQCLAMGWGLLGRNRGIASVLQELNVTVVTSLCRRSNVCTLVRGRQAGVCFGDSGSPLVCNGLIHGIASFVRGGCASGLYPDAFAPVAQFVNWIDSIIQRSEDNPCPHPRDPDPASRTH
Type: biochemical
Description: Assay buffer (0.4 unit/ml HNE (human neutrophil elastase, available from Elastin Products Company), 200 mM HEPES [N-(2-hydroxyethyl)piperazine-N′-(2-ethanesulfonic acid)], pH 7.5, 400 mM NaCl, 0.2 mg/ml BSA (bovine serum albumin)) 100 μl, water for injection 20 μl and 1% DMSO (dimethyl sulfoxide) solution of the present compound 20 μl were mixed in a 96 well plate and the mixed solutions were pre-incubated at 37° C. for five minutes. After pre-incubation, MeOSuc-AAPV-AMC (methoxysuccinyl-alanyl-alanyl-prolyl-valyl-aminomethyl cumaride (available from Sigma Aldrich Corp.) solution as fluorogenic substrate (which was dissolved in 10% DMSO solution so as to adjust to 0.5 mM) 40 μl was added to the above-prepared mixed solution so as to initiate the reaction, and the mixture was incubated at 37° C. for five minutes. The fluorescence intensity of AMC was measured at an excitation wavelength of 380 nm and a fluorescence wavelength of 460 nm and the inhibition ratio was determined.

| SMILES | IC50 |
| --- | --- |
| CCn1c(=O)c(-c2c(C(C)(C)N)cnn2-c2ccc(C#N)cc2)c(C)n(-c2cccc(C(F)(F)F)c2)c1=O [Example 297, 4-(4-(2-aminopropane-2-yl)-5-(3-ethyl-6-methyl-2,4-dioxo-1-(3-trifluoromethylphenyl)-1,2,3,4-tetrahydropyrimidin-5-yl)-1H-pyrazol-1-yl)benzonitrile] | 29.7 nM |
| CCNC(=O)NS(=O)(=O)c1cnn(-c2ccc(C#N)cc2)c1-c1c(C)n(-c2cccc(C(F)(F)F)c2)c(=O)n(C)c1=O [Example 257] | 7.7 nM |
| Cc1c(-c2c(S(=O)(=O)NC(=O)C3CCCCC3)cnn2-c2ccc(C#N)cc2)c(=O)n(C)c(=O)n1-c1cccc(C(F)(F)F)c1 [Example 261] | 7.2 nM |
| Cc1c(-c2c(C(=O)NC3CC3)cnn2-c2ccc(C#N)cc2)c(=O)n(C)c(=O)n1-c1cccc(C(F)(F)F)c1 [Example 179] | 8.7 nM |
| Cc1c(-c2c(F)cnn2-c2ccc(C#N)cc2)c(=O)n(C)c(=O)n1-c1cccc(C(F)(F)F)c1 [Example 358, 4-(5-(3,6-dimethyl-2,4-dioxo-1-(3-trifluoromethylphenyl)-1,2,3,4-tetrahydropyrimidin-5-yl)-4-fluoro-1H-pyrazol-1-yl)benzonitrile] | 29.5 nM |
| CC(=O)N1CCC(n2c(=O)c(-c3ccnn3-c3ccc(C#N)cc3)c(C)n(-c3cccc(C(F)(F)F)c3)c2=O)CC1 [Example 337] | 4.5 nM |
| CCn1c(=O)c(-c2ccnn2-c2ccc(C#N)cc2)c(C)n(-c2cccc(C(F)(F)F)c2)c1=O [Example 41, 4-(5-(3-ethyl-6-methyl-2,4-dioxo-1-(3-(trifluoromethyl)phenyl)-1,2,3,4-tetrahydropyrimidin-5-yl)-1H-pyrazol-1-yl)benzonitrile] | 12.6 nM |
| CCc1c(-c2ccnn2-c2ccc(C#N)cc2)c(=O)n(C)c(=O)n1-c1cccc(C(F)(F)F)c1 [Example 50, 4-(5-(6-ethyl-3-methyl-2,4-dioxo-1-(3-(trifluoromethyl)phenyl)-1,2,3,4-tetrahydropyrimidin-5-yl)-1H-pyrazol-1-yl)benzonitrile] | 13.7 nM |
| Cc1c(-c2c(S(C)(=O)=O)cnn2-c2ccc(C#N)cc2)c(=O)n(C)c(=O)n1-c1cccc(C(F)(F)F)c1 [Example 265] | 23.7 nM |
| Cc1cc(C#N)ccc1-n1nccc1-c1c(C)n(-c2cccc(C(F)(F)F)c2)c(=O)n(C)c1=O [Example 328] | 24.8 nM |
| CCn1c(=O)c(-c2c(C(=O)N(C)CCO)cnn2-c2ccc(C#N)cc2)c(C)n(-c2cccc(C(F)(F)F)c2)c1=O [Example 176] | 11.4 nM |
| Cc1c(-c2c(S(N)(=O)=O)cnn2-c2ccc(C#N)cc2)c(=O)n(C)c(=O)n1-c1cccc(C(F)(F)F)c1 (single isomer, unassigned) [Example 209, (+)-1-(4-cyanophenyl)-5-(3,6-dimethyl-2,4-dioxo-1-(3-trifluoromethylphenyl)-1,2,3,4-tetrahydropyrimidin-5-yl)-1H-pyrazole-4-sulfonamide] | 9.3 nM |
| CCn1c(=O)c(-c2c(C(C)(C)O)cnn2-c2ccc(C#N)cc2)c(C)n(-c2cccc(C(F)(F)F)c2)c1=O [Example 288, 4-(5-(3-ethyl-6-methyl-2,4-dioxo-1-(3-trifluoromethylphenyl)-1,2,3,4-tetrahydropyrimidin-5-yl)-4-(2-hydroxypropan-2-yl)-1H-pyrazol-1-yl)benzonitrile] | 26.2 nM |
| Cc1c(-c2ccnn2-c2ccc(C#N)cc2)c(=O)n(C(C)CN2CCC(S(C)(=O)=O)CC2)c(=O)n1-c1cccc(C(F)(F)F)c1 (stereo not shown) [Example 387] | 8.9 nM |
| Cc1c(-c2c(S(=O)(=O)NC(=O)c3ccccc3)cnn2-c2ccc(C#N)cc2)c(=O)n(C)c(=O)n1-c1cccc(C(F)(F)F)c1 [Example 249] | 11.9 nM |
| Cc1c(-c2c(Cl)cnn2-c2ccc(C#N)cc2)c(=O)n(C)c(=O)n1-c1cccc(C(F)(F)F)c1 [Example 360, 4-(4-chloro-5-(3,6-dimethyl-2,4-dioxo-1-(3-trifluoromethylphenyl)-1,2,3,4-tetrahydropyrimidin-5-yl)-1H-pyrazol-1-yl)benzonitrile] | 16.7 nM |
| Cc1c(-c2ccnn2-c2ccc(C#N)cc2)c(=O)n(C(C)C(=O)N(C)C)c(=O)n1-c1cccc(C(F)(F)F)c1 (stereo not shown) [Example 379] | 18.7 nM |
| Cc1c(-c2ccnn2-c2ccc(C#N)cc2)c(=O)n(C(C)C(=O)N2CC(O)C2)c(=O)n1-c1cccc(C(F)(F)F)c1 (stereo not shown) [Example 383] | 12.8 nM |
| Cc1c(-c2ccnn2-c2ccc(C#N)cc2)c(=O)n(C(C)CCN2CCOCC2)c(=O)n1-c1cccc(C(F)(F)F)c1 (stereo not shown) [Example 399] | 12.9 nM |
| Cc1c(-c2c(C(=O)OCCCCN(C)C)cnn2-c2ccc(C#N)cc2)c(=O)n(C)c(=O)n1-c1cccc(C(F)(F)F)c1 [Example 187, 4-(dimethylamino)butyl 1-(4-cyanophenyl)-5-(3,6-dimethyl-2,4-dioxo-1-(3-trifluoromethylphenyl)-1,2,3,4-tetrahydropyrimidin-5-yl)-1H-pyrazole-4-carboxylate] | 19.4 nM |

| SMILES | IC50 |
| --- | --- |
| CCCN1CCC(n2c(=O)c(-c3ccnn3-c3ccc(C#N)cc3)c(C)n(-c3cccc(C(F)(F)F)c3)c2=O)C1 (stereo not shown) [Example 343] | 7.3 nM |
| Cc1c(-c2c(S(=O)(=O)N3CCOC3=O)cnn2-c2ccc(C#N)cc2)c(=O)n(C)c(=O)n1-c1cccc(C(F)(F)F)c1 [Example 239] | 7.7 nM |
| CC(=O)N1CCC(n2c(=O)c(-c3c(F)cnn3-c3ccc(C#N)cc3)c(C)n(-c3cccc(C(F)(F)F)c3)c2=O)CC1 [Example 359] | 15.3 nM |
| Cc1c(-c2ccnn2-c2ccc(C#N)cc2)c(=O)n(C(C)CCNC2CC(F)(F)C2)c(=O)n1-c1cccc(C(F)(F)F)c1 (stereo not shown) [Example 406] | 12.9 nM |
| Cc1c(-c2c(N3CCOCC3)cnn2-c2ccc(C#N)cc2)c(=O)n(C)c(=O)n1-c1cccc(C(F)(F)F)c1 [Example 315, 4-(5-(3,6-Dimethyl-2,4-dioxo-1-(3-trifluoromethylphenyl)-1,2,3,4-tetrahydropyrimidin-5-yl)-4-morpholino-1H-pyrazol-1-yl)benzonitrile] | 24.2 nM |
| COC(=O)c1cnn(-c2ccc(C#N)cc2)c1-c1c(C)n(-c2cccc(C(F)(F)F)c2)c(=O)n(C)c1=O [Example 188] | 18.6 nM |
| CCCCC(=O)NS(=O)(=O)c1cnn(-c2ccc(C#N)cc2)c1-c1c(C)n(-c2cccc(C(F)(F)F)c2)c(=O)n(C)c1=O [Example 243] | 5.4 nM |
| Cc1c(-c2c(N3CCN(C(C)C)CC3)cnn2-c2ccc(C#N)cc2)c(=O)n(C)c(=O)n1-c1cccc(C(F)(F)F)c1 [Example 318] | 14.9 nM |
| Cc1c(-c2ccnn2-c2ccc(C#N)cc2)c(=O)n([C@H](C)CS(N)(=O)=O)c(=O)n1-c1cccc(C(F)(F)F)c1 [Example 324, (R)-2-(5-(1-(4-Cyanophenyl)-1H-pyrazol-5-yl)-4-methyl-2,6-dioxo-3-(3-trifluoromethylphenyl)-2,3-dihydropyrimidin-1(6H)-yl)propane-1-sulfonamide] | 9.6 nM |
| COCCNC(=O)c1cnn(-c2ccc(C#N)cc2)c1-c1c(C)n(-c2cccc(C(F)(F)F)c2)c(=O)n(C)c1=O [Example 178] | 13.5 nM |
| Cc1c(-c2ccnn2-c2ccc(C#N)cc2)c(=O)n([C@H](C)CO)c(=O)n1-c1cccc(C(F)(F)F)c1 [Example 55, (R)-4-(5-(3-(1-hydroxypropan-2-yl)-6-methyl-2,4-dioxo-1-(3-(trifluoromethyl)phenyl)-1,2,3,4-tetrahydropyrimidin-5-yl)-1H-pyrazol-1-yl)benzonitrile] | 4.9 nM |
| Cc1c(-c2ccnn2-c2ccc(C#N)cc2)c(=O)n(C(C)CN2CCOCC2)c(=O)n1-c1cccc(C(F)(F)F)c1 (stereo not shown) [Example 386] | 10.1 nM |
| Cc1c(-c2c(C(=O)N(C)C)cnn2-c2ccc(C#N)cc2)c(=O)n(C(C)C)c(=O)n1-c1cccc(C(F)(F)F)c1 [Example 153] | 5.4 nM |
| Cc1c(-c2c(CN3CC(F)(F)C3)cnn2-c2ccc(C#N)cc2)c(=O)n(C)c(=O)n1-c1cccc(C(F)(F)F)c1 [Example 305] | 22 nM |
| Cc1c(-c2ccnn2-c2ccc(C#N)cc2)c(=O)n(C(C)CCNc2ccncc2)c(=O)n1-c1cccc(C(F)(F)F)c1 (stereo not shown) [Example 408] | 14.7 nM |
| Cc1c(-c2c(S(=O)(=O)O)cnn2-c2ccc(C#N)cc2)c(=O)n(C)c(=O)n1-c1cccc(C(F)(F)F)c1 [Example 196] | 8.4 nM |
| Cc1c(-c2c(S(N)(=O)=O)cnn2-c2ccc(C#N)cc2)c(=O)n(C)c(=O)n1-c1cccc(C(F)(F)F)c1 [Example 205, 1-(4-cyanophenyl)-5-(3,6-dimethyl-2,4-dioxo-1-(3-trifluoromethylphenyl)-1,2,3,4-tetrahydropyrimidin-5-yl)-1H-pyrazole-4-sulfonamide] | 15 nM |
| Cc1c(-c2c(C#N)cnn2-c2ccc(C#N)cc2)c(=O)n(C)c(=O)n1-c1cccc(C(F)(F)F)c1 [Example 363, 1-(4-Cyanophenyl)-5-(3,6-dimethyl-2,4-dioxo-1-(3-trifluoromethyl)-1,2,3,4-tetrahydropyrimidin-5-yl)-1H-pyrazole-4-carbonitrile] | 19.1 nM |
| Cc1c(-c2ccnn2-c2ccc(C#N)cc2)c(=O)n(C2CCN(C(=O)C(C)(C)O)CC2)c(=O)n1-c1cccc(C(F)(F)F)c1 [Example 355] | 8.1 nM |
| Cc1c(-c2c(C3(O)CCS(=O)(=O)CC3)cnn2-c2ccc(C#N)cc2)c(=O)n(C)c(=O)n1-c1cccc(C(F)(F)F)c1 [Example 293] | 25.1 nM |
